Experimental data as given in ChEMBL document CHEMBL6087385, “Synthesis and biological evaluation of Ribo 7-N/O/S pyrimidine 9-deaza C-nucleoside analogs as new antiviral agents for inhibiting HCV RNA-dependent RNA polymerases” (Eur J Med Chem, 2024).

Key:
[1] = Toxicity in Cynomolgus monkey assessed as emesis at 100 mg/kg, po administered as single dose; format: organism-based, Macaca fascicularis; settings: in vivo
[2] = Toxicity in Sprague-Dawley rat assessed as lethargy at 100 mg/kg, po administered as single dose and measured after 14 days; format: organism-based; settings: in vivo, 336 h, time 14 day
[3] = Toxicity in rat assessed as effect on respiratory measures at 1 to 9 mg/kg, po; format: organism-based; settings: in vivo, dose 1-9 mg/kg
[4] = Half life in Sprague-Dawley rat at 5 mg/kg, po by reverse phase chromatography; format: ADME, organism-based; settings: in vivo
[5] = AUC (0 to infinity) in Cynomolgus monkey at 10 mg/kg, po administered for 7 days by reverse phase chromatography; format: ADME, organism-based, Macaca fascicularis; settings: in vivo, time 7 day
[6] = AUC (0 to infinity) in Sprague-Dawley rat at 10 mg/kg, po by reverse phase chromatography; format: ADME, organism-based; settings: in vivo
[7] = Metabolic stability in rat liver microsome assessed as half life in presence of NADPH; format: ADME; settings: liver microsomes
[8] = Toxicity in Sprague-Dawley rat assessed as diarrhea at 100 mg/kg, po administered as single dose and measured after 14 days; format: organism-based; settings: in vivo, 336 h, time 14 day
[9] = Volume of distribution in Cynomolgus monkey at 1 mg/kg, iv by reverse phase chromatography; format: ADME, organism-based, Macaca fascicularis; settings: in vivo
[10] = Clearance in Sprague-Dawley rat at 1 mg/kg, iv by reverse phase chromatography; format: ADME, organism-based; settings: in vivo
[11] = Toxicity in Cynomolgus monkey assessed as animal death at 100 to 500 mg/kg, po administered as single dose; format: organism-based, Macaca fascicularis; settings: in vivo, dose 100-500 mg/kg
[12] = Cmax in Sprague-Dawley rat at 5 mg/kg, po by reverse phase chromatography; format: ADME, organism-based; settings: in vivo
[13] = Toxicity in Sprague-Dawley rat assessed as diarrhea at 250 mg/kg, po administered as single dose and measured after 14 days; format: organism-based; settings: in vivo, 336 h, time 14 day
[14] = AUC in Cynomolgus monkey at 1 mg/kg, iv by reverse phase chromatography; format: ADME, organism-based, Macaca fascicularis; settings: in vivo
[15] = AUC (0 to infinity) in Cynomolgus monkey at 1 mg/kg, iv by reverse phase chromatography; format: ADME, organism-based, Macaca fascicularis; settings: in vivo
[16] = Toxicity in Cynomolgus monkey assessed as weight loss at 100 mg/kg, po administered twice a day; format: organism-based, Macaca fascicularis; settings: in vivo
[17] = Cmax in Cynomolgus monkey at 10 mg/kg, po administered for 7 days by reverse phase chromatography; format: ADME, organism-based, Macaca fascicularis; settings: in vivo, time 7 day
[18] = Toxicity in Sprague-Dawley rat assessed as macroscopic examination at necroscopy at 250 mg/kg, po administered as single dose and measured after 14 days; format: organism-based; settings: in vivo, 336 h, time 14 day
[19] = Genotoxicity in mouse L5178Y cells assessed as increase in forward mutation at thymidine kinase locus measured after 4 hrs; format: toxicity, cell-based
[20] = Oral bioavailability in mouse at 5 mg/kg by reverse phase chromatography; format: ADME, organism-based; settings: in vivo
[21] = AUC in Sprague-Dawley rat at 5 mg/kg, po by reverse phase chromatography; format: ADME, organism-based; settings: in vivo
[22] = Toxicity in Cynomolgus monkey assessed as change in ECG at 100 to 500 mg/kg, po administered as single dose; format: organism-based, Macaca fascicularis; settings: in vivo, dose 100-500 mg/kg
[23] = Genotoxicity in CD-1(ICR)BR mouse assessed as effect on bone marrow cells at 2000 mg/kg, po by micronucleus assay; format: toxicity, organism-based; settings: in vivo
[24] = AUC (0 to infinity) in female mouse at 5 mg/kg, po by reverse phase chromatography; format: ADME, organism-based; settings: in vivo
[25] = Toxicity in po dosed rat assessed as no observable adverse effect level; format: organism-based; settings: in vivo
[26] = Toxicity in Sprague-Dawley rat assessed as lethargy at 150 mg/kg, po administered as single dose and measured after 14 days; format: organism-based; settings: in vivo, 336 h, time 14 day
[27] = Oral bioavailability in Sprague-Dawley rat at 5 mg/kg by reverse phase chromatography; format: ADME, organism-based; settings: in vivo
[28] = Toxicity in Sprague-Dawley rat assessed as anogenital staining at 250 mg/kg, po administered as single dose and measured after 14 days; format: organism-based; settings: in vivo, 336 h, time 14 day
[29] = Volume of distribution in female mouse at 1 mg/kg, iv by reverse phase chromatography; format: ADME, organism-based; settings: in vivo
[30] = Half life in Cynomolgus monkey at 10 mg/kg, po administered for 7 days by reverse phase chromatography; format: ADME, organism-based, Macaca fascicularis; settings: in vivo, time 7 day
[31] = Toxicity in Sprague-Dawley rat assessed as anogenital staining at 100 mg/kg, po administered as single dose and measured after 14 days; format: organism-based; settings: in vivo, 336 h, time 14 day
[32] = Half life in female mouse at 5 mg/kg, po by reverse phase chromatography; format: ADME, organism-based; settings: in vivo
[33] = Oral bioavailability in Cynomolgus monkey at 10 mg/kg administered for 7 days by reverse phase chromatography; format: ADME, organism-based, Macaca fascicularis; settings: in vivo, time 7 day
[34] = Volume of distribution in Sprague-Dawley rat at 1 mg/kg, iv by reverse phase chromatography; format: ADME, organism-based; settings: in vivo
Hepatitis C virus [35] = experiment: Anti-viral activity against HCV genotype 2a infected in 2aLucNeo-25 cells; format: functional, organism-based, Hepacivirus hominis
[36] = Metabolic stability in human liver microsome assessed as half life in presence of NADPH; format: ADME; settings: liver microsomes
[37] = Toxicity in dog assessed as increase in QTc interval at 1 to 5 mg/kg, po measured after 3 hrs; format: organism-based, Canis lupus familiaris; settings: in vivo, dose 1-5 mg/kg
[38] = Clearance in Cynomolgus monkey at 1 mg/kg, iv by reverse phase chromatography; format: ADME, organism-based, Macaca fascicularis; settings: in vivo
[39] = Drug metabolism in human Huh-luc/neo cells assessed as triphosphate metabolite formation at 10 uM measured after 24 hrs by HPLC-MS analysis; format: ADME, cell-based
[40] = Drug concentration in Sprague-Dawley rat liver at 2 mg/kg, iv measured upto 24 hrs in presence of ATP by LC-MS/MS analysis; format: ADME, organism-based; settings: read-out: Ct
[41] = AUC in female mouse at 5 mg/kg, po by reverse phase chromatography; format: ADME, organism-based; settings: in vivo
Hepatitis C virus [42] = experiment: Antiviral activity against Hepatitis C virus infected in Ava5 cells assessed as inhibition of viral RNA replication incubated for 72 hrs by RT-PCR analysis; format: functional, organism-based, Hepacivirus hominis; settings: Ava5, 72 h
[43] = Drug level in Sprague-Dawley rat liver assessed as triphosphate metabolite concentration at 2 mg/kg, iv measured after 1 hr in presence of ATP by LC-MS/MS analysis; format: ADME, organism-based; settings: in vivo, read-out: Ct
[44] = AUC (0 to infinity) in Sprague-Dawley rat at 1 mg/kg, iv by reverse phase chromatography; format: ADME, organism-based; settings: in vivo
[45] = Metabolic stability in Non human primate liver microsome assessed as half life in presence of NADPH; format: ADME; settings: liver microsomes
[46] = Toxicity in rat assessed as change in body weight at 1 to 9 mg/kg, po; format: organism-based; settings: in vivo, dose 1-9 mg/kg
[47] = Metabolic stability in cryopreserved dog hepatocyte assessed as half life in presence of NADPH; format: ADME, cell-based, Canis lupus familiaris; settings: cryopreserved hepatocytes
[48] = Toxicity in Sprague-Dawley rat assessed as piloerection at 90 mg/kg, po administered as single dose and measured after 14 days; format: organism-based; settings: in vivo, 336 h, time 14 day
[49] = Toxicity in Sprague-Dawley rat assessed as anogenital staining at 90 mg/kg, po administered as single dose and measured after 14 days; format: organism-based; settings: in vivo, 336 h, time 14 day
[50] = Cmax in female mouse at 5 mg/kg, po by reverse phase chromatography; format: ADME, organism-based; settings: in vivo
[51] = Tmax in female mouse at 1 mg/kg, iv by reverse phase chromatography; format: ADME, organism-based; settings: in vivo

Compound: C[C@@]1(O)[C@H](O)[C@@H](CO)O[C@H]1c1coc2c(N)ncnc12
- Activity [1]: Non-toxic
- Activity [2]: Non-toxic
- Activity [3]: Non-toxic
- half-life [4]: 9.18 h
- AUC(0-inf) [5]: 8010 ng·h/mL
- AUC(0-inf) [6]: 5650 ng·h/mL
- half-life [7]: > 1.67 h
- Activity [8]: Non-toxic
- Vd [9]: 8.67 L/kg
- clearance [10]: 17.6 mL/min/kg
- Activity [11]: Non-toxic
- Cmax [12]: 593 ng/mL
- Activity [13]: Non-toxic
- AUC [14]: 1930 ng·h/mL
- AUC(0-inf) [15]: 2340 ng·h/mL
- Activity [16]: Non-toxic
- Cmax [17]: 2510 ng/mL
- Activity [18]: Toxic
- Activity [19]: Toxic
- bioavailability [20]: 75%
- AUC [21]: 1920 ng·h/mL
- Activity [22]: Non-toxic
- Activity [23]: Toxic
- AUC(0-inf) [24]: 4220 ng·h/mL
- NOAEL [25]: ≤ 9 mg/kg
- Activity [26]: Toxic
- bioavailability [27]: 55%
- Activity [28]: Non-toxic
- Vd [29]: 22.4 L/kg
- half-life [30]: 26.3 h
- Activity [31]: Non-toxic
- half-life [32]: 16.6 h
- bioavailability [33]: 37.6%
- Vd [34]: 33.2 L/kg
- EC50 (Hepatitis C virus [35]): > 50 µM
- half-life [36]: > 1.67 h
- Activity [37]: Non-toxic
- clearance [38]: 8.56 mL/min/kg
- Drug metabolism [39]: metabolite_detected
- concentration at 24 h [40]: 0.42 µM
- AUC [41]: 3250 ng·h/mL
- EC50 (Hepatitis C virus [42]): 6.5 µM
- concentration [43]: 22.6 µM
- AUC(0-inf) [44]: 947 ng·h/mL
- half-life [45]: > 1.67 h
- Activity [46]: Non-toxic
- half-life [47]: > 1 h
- Activity [48]: Non-toxic
- Activity [49]: Non-toxic
- Cmax [50]: 1060 ng/mL
- Tmax [51]: 4.98 min
